Data as given in patent US7829578B1, “Aromatic ketones and uses thereof” (Oregon Health & Science University, priority 2005, dated 2010).
Read-outs that look alike come from different tables or passages of the source.

How the values were obtained:
Type in all cases: cell-based
[1] = test system: multi-drug resistant (Dd2) strain of Plasmodium falciparum; experiment: In vitro antimalarial MSF (SyBrGreen I fluorescence) assay, Dd2 strain
Description: (§1) Four different laboratory strains of P. falciparum were cultured in human erythrocytes by standard methods under a low oxygen atmosphere (5% O2, 5% CO2, 90% N2) in an environmental chamber. The culture medium was RPMI 1640, supplemented with 25 mM Hepes buffer, 25 mg/liter gentamicin sulfate, 45 mg/liter hypoxanthine, 10 mM glucose, 2 mM glutamine, and 0.5% Albumax II (complete medium). The parasites were maintained in fresh human erythrocytes suspended at a 2% hematocrit in complete medium at 37° C. Stock cultures were sub-passaged every 3 to 4 days by transfer of infected red cells to a flask containing complete medium and uninfected erythrocytes.
(§2) In vitro antimalarial activity of the test compounds was assessed by a fluorescence-based method described previously (Smilkstein et al., 2004, Antimicrobial Agents and Chemotherapy, Vol. 48, pgs. 1803-1806) (reference format?). The studies were set up in triplicate in 96 well plates with two-fold dilutions of each test compound across the plate in a total volume of 100 μl and at a final red blood cell concentration of 2% (v/v). Stock solutions of each drug were prepared by dissolving in DMSO at 10 mM. […] In every case, an additional determination was performed to ensure bracketing of the IC50 value by at least an order of magnitude.
(§3) Automated pipeting and dilution was carried out by a programmable Precision 2000 robotic station (Bio-Tek, Winooski, Vt.). An initial parasitemia of 0.2% was attained by addition of normal uninfected red cells to a stock culture of asynchronous parasite infected red cells (PRBC). The plates were incubated for 72 hrs at 37° C. in an atmosphere of 5% CO2, 5% O2, and 90% N2. After this period, the SyBrGreen I dye-detergent mixture (100 μl) was added and the plates were incubated at room temperature for an hour in the dark and then placed in a 96-well fluorescence plate reader (Gemini-EM, […]) for analysis with excitation and emission wavelength bands centered at 497 and 520 nm, respectively.

[2] = test system: Murine splenic lymphocytes; experiment: MSLCs-concanavalin A induced proliferation (blastogenesis) cytotoxicity assay, Alamar Blue fluorescence; settings: Table 2, 24-hr MSLCs-concanavalin A induced proliferation
Description: *Data are the average of at least 3 independent experiments, each performed in triplicate with the aid of a Precision 2000 robotic pipeting station. IC50 values were determined by the MSF assay. […] MSLCs=Murine splenic lymphocytes. Cytotoxicity was determined using a 24-hr MSLCs-concanavalin A induced proliferation assay using the Alamar Blue fluorescence method. IVTI=in vitro therapeutic index calculated from the ratio of IC50 values based on the cytotoxicity observed in the blastogenesis assay and the antimalarial potency against the D6 strain of P. falciparum. NT=not tested.
*Data are the average of at least 3 independent experiments, each performed in triplicate with the aid of a Precision 2000 robotic pipeting station. IC50 values were determined by the MSF assay (Smilkstein et al., AAC, 2004). MSLCs=Murine splenic lymphocytes. Cytotoxicity was determined using a 48-hr MSLCs-concanavalin A induced proliferation assay using the Alamar Blue fluorescence method. IVTI=in vitro therapeutic index calculated from the ratio of IC50 values of the cytotoxicity observed in the blastogenesis assay and antimalarial potency against the D6 strain of P. falciparum. NA=not applicable; ND=not determined.

[3] = test system: drug susceptible (D6) strain of Plasmodium falciparum; experiment: In vitro antimalarial MSF (SyBrGreen I fluorescence) assay, D6 strain
Description: as §1, §2, §3

[4] = test system: Murine splenic lymphocytes; experiment: MSLCs-concanavalin A induced proliferation (blastogenesis) cytotoxicity assay, Alamar Blue fluorescence; settings: Table 3, 48-hr MSLCs-concanavalin A induced proliferation
[5] = Table 2, 72 hrs, average of at least 3 experiments
[6] = Table 2, MSF assay, 72 hrs, average of at least 3 experiments, read-out: D6 IC50
[7] = Plasmodium falciparum, D6, strain not given, read-out: IC50 value of parent compound used for comparison
[8] = Plasmodium falciparum, D6, Table 3, MSF assay, read-out: D6 IC50
[9] = Mus musculus, Splenic lymphocyte
[10] = Table 3, MSF assay, read-out: D6 IC50
[11] = Plasmodium falciparum, DD2, Table 3
[12] = Plasmodium falciparum, D6, Table 4, MSF assay, read-out: D6 IC50

SMILES | IC50 [1, 5] [nM] | IC50 [3, 6] [nM] | IC50 [2] [nM] | also measured
CCN(CC)CCCC(C)Nc1ccnc2cc(Cl)ccc12 (racemic) [compound 36] | 102 | 7.8 | 3900 | –
O=c1c2ccc(O)cc2[nH]c2cc(Cl)ccc12 [No. 14, 3-hydroxy-6-chloroacridone] | – | – | – | IC50 [3, 7]: > 2200 nM
COc1ccc2c(=O)cc(C)[nH]c2c1 [No. 43, 2-methyl-7-methoxy-4-(1H)-quinolone] | – | – | – | IC50 [3, 7]: > 2500 nM
O=C1C=C(O)C(=O)c2ccccc21 [No. 47, 2-hydroxy-1,4-naphthoquinone, reference compound] | – | – | – | IC50 [3, 7]: ~1800 nM
O=c1c2ccc(O)cc2oc2cc(O)ccc12 [No. 52, 3,6-dihydroxyxanthone, reference compound] | – | – | – | IC50 ([3]; Plasmodium falciparum, D6, read-out: IC50 value of parent compound used for comparison): > 100000 nM
COc1ccc2[nH]c3cc(Cl)ccc3c(=O)c2c1 [compound 7] | 65 | 45 | > 25000 | –
O=c1c2ccc(Cl)cc2[nH]c2ccc(O)cc12 [compound 8] | 260 | 190 | 24000 | –
COc1ccc2nc3cc(Cl)ccc3c(N)c2c1 [compound 9] | 42 | 18 | 450 | –
O=c1c2ccc(Cl)cc2[nH]c2ccc(OCCCCCBr)cc12 [compound 10] | 152 | 70 | 12000 | –
O=c1c2ccc(O)cc2oc2cc(OCCCCCC(F)(F)F)ccc12 [compound 11] | 40 | 46 | > 25000 | –
O=C1C=C(OCCCCCC(F)(F)F)C(=O)c2ccccc21 [compound 12] | 95 | 67 | 5600 | –
COc1ccc2c(=O)c3ccc(Cl)cc3[nH]c2c1 [compound 13] | 192 | 76 | > 25000 | –
O=c1c2ccc(Cl)cc2[nH]c2cc(OCCCCC(F)(F)F)ccc12 [compound 18] | 0.5 | 0.3 | > 25000 | –
O=c1c2ccc(Cl)cc2[nH]c2ccc(OCCCCCC(F)(F)F)cc12 [compound 22] | 15 | 10 | > 25000 | –
O=c1c2ccc(Cl)cc2[nH]c2cc(OCCCCC(F)(C(F)(F)F)C(F)(F)F)ccc12 [compound 24] | – | 0.0015 | > 25000 | –
O=c1c2ccccc2[nH]c2ccc(OCCCCCC(F)(F)F)cc12 [compound 25] | 49 | 36 | > 25000 | –
O=c1c2ccccc2[nH]c2cc(OCCCCCC(F)(F)F)ccc12 [compound 26] | 0.015 | 0.43 | > 25000 | –
O=c1c2ccccc2[nH]c2c(OCCCCCC(F)(F)F)cccc12 [compound 27] | 515 | 446 | > 25000 | –
O=c1c2ccc(Cl)cc2[nH]c2cc(OCCCCCCCC(F)(F)F)ccc12 [compound 28] | 0.17 | 0.16 | > 25000 | –
O=c1c2ccc(Cl)cc2[nH]c2cc(OCCCCCCCCCCC(F)(F)F)ccc12 [compound 30] | 0.025 | 0.023 | > 25000 | –

SMILES | IC50 [1, 5] [nM] | IC50 [3, 6] [nM] | IC50 [2] [nM] | also measured
Cn1c2cc(Cl)ccc2c(=O)c2ccc(OCCCCC(F)(F)F)cc21 [compound 31] | 3500 | 4000 | > 25000 | –
Nc1c2ccc(Cl)cc2nc2cc(OCCCCCC(F)(F)F)ccc12 [compound 32] | 10 | 2.9 | 250 | –
O=c1c2ccc(OCCCCCC(F)(F)F)cc2[nH]c2cc([N+](=O)[O-])ccc12 [compound 33] | 5.8 | 3.2 | > 25000 | –
Nc1ccc2c(=O)c3ccc(OCCCCCC(F)(F)F)cc3[nH]c2c1 [compound 34] | – | – | > 25000 | –
O=C1C=C(OCCCCC(F)(F)F)C(=O)c2ccccc21 [compound 35] | 35 | 32 | 14000 | –
C=CC1CN2CCC1CC2C(O)c1ccnc2ccc(OC)cc12 (centres unmarked) [compound 37] | 68 | 11 | 23000 | –
CC1CCC2C(C)C(=O)OC3OC4(C)CCC1C32OO4 (centres unmarked) [compound 39] | 0.9 | 0.65 | > 25000 | –
COc1ccc2c(=O)cc[nH]c2c1 [compound 40] | – | – | – | IC50 [3, 8]: > 2500 nM; IC50 [4, 9]: > 25000 nM
CCOC(=O)c1c[nH]c2cc(OC)ccc2c1=O [compound 41] | – | – | – | IC50 [3, 10]: 440 nM; IC50 [4]: > 25000 nM
COc1ccc2c(=O)c(C(=O)O)c[nH]c2c1 [compound 42] | – | – | – | IC50 [3, 8]: > 2500 nM; IC50 [4, 9]: > 25000 nM
COc1ccc2c(=O)cc(C)[nH]c2c1 [compound 43] | – | – | – | IC50 [1, 11]: 13700 nM; IC50 [3, 8]: 7000 nM; IC50 [4, 9]: > 25000 nM
COc1ccc2c(=O)c(CCCCCC(F)(F)F)c(C)[nH]c2c1 [compound 44] | – | – | – | IC50 [1, 11]: 12.8 nM; IC50 [3, 8]: 10.2 nM; IC50 [4, 9]: > 25000 nM
COc1ccc2c(=O)c(CCCCCCCCCCC(F)(F)F)c(C)[nH]c2c1 [compound 45] | – | – | – | IC50 ([1]; Table 3): 0.36 nM; IC50 [3, 10]: 0.2 nM; IC50 [4]: > 25000 nM
O=C1C=C(O)C(=O)c2ccccc21 [compound 47] | – | – | – | IC50 [3, 12]: 1800 nM
O=C1C=C(OCCCCC(F)(F)F)C(=O)c2ccccc21 [compound 48] | – | – | – | IC50 [3, 12]: 51.1 nM
O=C1C=C(CCCCCC(F)(F)F)C(=O)c2ccccc21 [compound 49] | – | – | – | IC50 [3, 12]: 823 nM
O=c1c2ccc(O)cc2oc2cc(O)ccc12 [compound 52] | – | – | – | IC50 ([3]; Plasmodium falciparum, D6, read-out: D6 IC50, nM): > 100000 nM
O=c1c2ccc(O)cc2oc2cc(OCCCCCC(F)(F)F)ccc12 [compound 53] | – | – | – | IC50 [3, 12]: 780 nM
O=C1c2ccccc2Cc2ccc(O)cc21 [compound 54] | – | – | – | IC50 [3, 12]: 8300 nM
O=C1c2ccccc2Cc2ccc(OCCCCCC(F)(F)F)cc21 [compound 55] | – | – | – | IC50 [3, 12]: 510 nM

Continued, in another order:

IC50 [1, 5] [nM] | IC50 [3, 6] [nM] | SMILES | IC50 [2] [nM] | also measured
8.8 | 5.9 | OC(c1cc(C(F)(F)F)nc2c(C(F)(F)F)cccc12)C1CCCCN1 (racemic) [compound 38] | 4800 | –
4400 | 9000 | O=c1c2ccccc2[nH]c2ccc(O)cc12 [compound 5] | > 25000 | –
504 | 2000 | O=c1c2ccccc2[nH]c2cc(O)ccc12 [compound 6] | > 25000 | –
9200 | 2200 | O=c1c2ccc(O)cc2[nH]c2cc(Cl)ccc12 [compound 14] | 14000 | –
54 | 27 | O=C1c2ccc(OCCCCCC(F)(F)F)cc2C(=O)c2ccc(O)cc21 [compound 15] | > 25000 | –
13 | 12 | O=c1c2ccc(Cl)cc2[nH]c2cc(OCCCCCCl)ccc12 [compound 16] | > 25000 | –
1.2 | 1 | O=c1c2ccc(Cl)cc2[nH]c2cc(OCCCC(F)(F)F)ccc12 [compound 17] | > 25000 | –
18000 | 16000 | O=c1c2ccc(Cl)cc2oc2cc(OCCCCC(F)(F)F)ccc12 [compound 19] | > 25000 | –
0.3 | 0.5 | O=c1c2ccccc2[nH]c2cc(OCCCCC(F)(F)F)ccc12 [compound 20] | > 25000 | –
0.07 | 0.06 | O=c1c2ccc(Cl)cc2[nH]c2cc(OCCCCCC(F)(F)F)ccc12 [compound 21] | > 25000 | –
0.02 | 0.02 | O=c1c2ccc(Cl)cc2[nH]c2cc(OCCCCC(F)(F)C(F)(F)F)ccc12 [compound 23] | > 25000 | –
3.5 | 2.2 | O=c1c2ccc(Cl)cc2[nH]c2cc(OCCCCCCCCO)ccc12 [compound 29] | > 25000 | –
